Assays:
IKZF1 = molecular target: T1, IKZF1 (Homo sapiens, UniProt Q13422+Q96SW2); test: Western-blot assay of substrate protein degradation in hPBMCs, IKZF1; type: cell-based; conditions: 24 hours of compound treatment, compounds tested at 50 nM and 500 nM (concentration of the table not stated)
T1 construct: endogenous in cells; host or cells: hPBMCs (Milecell Biotechnologies)

NCI-H1975 = test: Tumor cell proliferation inhibition (CellTiter-Meiluncell Luminescent Cell Viability Assay), NCI-H1975; conditions: Homo sapiens, NCI-H1975, 96 h, read-out: inhibitory activity (IC50, nM) against tumor cells proliferation, H1975
IKZF2 = molecular target: T2, IKZF2 (Homo sapiens, UniProt Q96SW2+Q9UKS7); test: Western-blot assay of substrate protein degradation in hPBMCs, IKZF2; type: cell-based; conditions: 24 hours of compound treatment, compounds tested at 50 nM and 500 nM (concentration of the table not stated)
T2 construct: endogenous in cells; host or cells: hPBMCs (Milecell Biotechnologies)
T2 sequence (Q9UKS7 whole entry): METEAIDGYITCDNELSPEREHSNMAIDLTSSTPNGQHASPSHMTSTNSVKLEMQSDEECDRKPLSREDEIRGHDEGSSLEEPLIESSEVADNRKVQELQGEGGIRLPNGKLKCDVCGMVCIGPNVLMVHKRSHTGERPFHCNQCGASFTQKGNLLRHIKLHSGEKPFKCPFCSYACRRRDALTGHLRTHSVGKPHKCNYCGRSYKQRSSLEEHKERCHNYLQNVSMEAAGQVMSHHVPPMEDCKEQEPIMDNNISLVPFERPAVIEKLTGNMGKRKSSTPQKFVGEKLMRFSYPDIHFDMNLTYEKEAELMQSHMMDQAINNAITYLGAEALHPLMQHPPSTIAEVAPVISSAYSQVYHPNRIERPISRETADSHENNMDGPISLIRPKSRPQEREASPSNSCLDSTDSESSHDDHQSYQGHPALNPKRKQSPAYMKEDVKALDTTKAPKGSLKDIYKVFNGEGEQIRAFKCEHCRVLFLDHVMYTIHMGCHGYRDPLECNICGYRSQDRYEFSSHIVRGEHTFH
T2 sequence (Q96SW2 whole entry): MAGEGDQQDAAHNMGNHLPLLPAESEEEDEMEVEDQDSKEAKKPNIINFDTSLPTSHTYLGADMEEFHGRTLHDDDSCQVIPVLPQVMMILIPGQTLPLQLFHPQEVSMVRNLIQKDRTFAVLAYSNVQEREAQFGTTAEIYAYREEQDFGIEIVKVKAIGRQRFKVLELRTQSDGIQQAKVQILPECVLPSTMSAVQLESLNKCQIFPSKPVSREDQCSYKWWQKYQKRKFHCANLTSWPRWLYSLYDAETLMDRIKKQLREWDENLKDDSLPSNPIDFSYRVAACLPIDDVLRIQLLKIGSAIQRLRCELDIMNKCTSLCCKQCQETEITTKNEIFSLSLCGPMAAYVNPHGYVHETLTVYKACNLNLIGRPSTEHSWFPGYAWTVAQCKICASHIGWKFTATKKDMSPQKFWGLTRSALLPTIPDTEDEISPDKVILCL
T2 sequence (Q16531 whole entry partner): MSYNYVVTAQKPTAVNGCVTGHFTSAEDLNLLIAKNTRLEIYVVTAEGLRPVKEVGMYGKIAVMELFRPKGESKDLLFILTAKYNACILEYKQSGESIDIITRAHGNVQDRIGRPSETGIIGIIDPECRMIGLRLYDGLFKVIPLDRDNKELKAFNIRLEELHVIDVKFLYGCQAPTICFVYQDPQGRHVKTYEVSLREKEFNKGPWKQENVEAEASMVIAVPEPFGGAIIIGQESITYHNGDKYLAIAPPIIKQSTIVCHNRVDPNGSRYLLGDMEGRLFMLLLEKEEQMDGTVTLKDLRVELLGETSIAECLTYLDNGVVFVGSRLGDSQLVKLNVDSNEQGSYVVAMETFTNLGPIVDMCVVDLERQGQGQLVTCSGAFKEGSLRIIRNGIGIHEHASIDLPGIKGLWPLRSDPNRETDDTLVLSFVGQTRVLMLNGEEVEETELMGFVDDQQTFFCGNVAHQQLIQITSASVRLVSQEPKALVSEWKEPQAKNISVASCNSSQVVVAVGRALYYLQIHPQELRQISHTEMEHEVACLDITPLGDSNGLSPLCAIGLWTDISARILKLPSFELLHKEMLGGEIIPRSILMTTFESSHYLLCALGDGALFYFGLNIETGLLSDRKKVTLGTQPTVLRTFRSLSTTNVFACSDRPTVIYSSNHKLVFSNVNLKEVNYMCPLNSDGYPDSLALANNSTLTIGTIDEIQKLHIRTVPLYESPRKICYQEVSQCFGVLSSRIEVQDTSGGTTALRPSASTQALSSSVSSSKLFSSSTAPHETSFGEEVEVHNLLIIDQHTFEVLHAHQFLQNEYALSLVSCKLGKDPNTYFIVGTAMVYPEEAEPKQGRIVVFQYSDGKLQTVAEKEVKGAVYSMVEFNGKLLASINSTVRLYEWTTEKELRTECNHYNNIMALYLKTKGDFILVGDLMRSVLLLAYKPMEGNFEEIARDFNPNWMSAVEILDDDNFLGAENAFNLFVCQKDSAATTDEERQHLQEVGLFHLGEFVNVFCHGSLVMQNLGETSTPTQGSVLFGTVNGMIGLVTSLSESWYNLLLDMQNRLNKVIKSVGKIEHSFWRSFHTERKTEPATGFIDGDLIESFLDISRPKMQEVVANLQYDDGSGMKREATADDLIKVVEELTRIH

[1] = molecular target: T3, human Cereblon WT GST-tagged protein (Homo sapiens, UniProt Q96SW2); test: CRBN-binding affinity by HTRF (CEREBLON BINDING kit); conditions: HTRF inhibitory activity, CEREBLON BINDING kit; read-out: HTRF IC50
T3 construct: purchased CISBIO 64BDCRBNPEH
T3 sequence (Q96SW2 whole entry): as the sequence (Q96SW2 whole entry) above

MM.1R = test: Tumor cell proliferation inhibition (CellTiter-Meiluncell Luminescent Cell Viability Assay), MM.1R; conditions: Homo sapiens, 96 h, read-out: inhibitory activity (IC50, nM) against tumor cells proliferation, MM.1R
[2] = test system: Human acute T lymphocytic leukemia cells (Molt-4); test: Tumor cell proliferation inhibition (CellTiter-Meiluncell Luminescent Cell Viability Assay), Molt-4; conditions: MOLT-4, 96 h, read-out: inhibitory activity (IC50, nM) against tumor cells proliferation, Molt 4
GSPT1 = molecular target: T4, GSPT1 (Homo sapiens, UniProt P15170+Q96SW2); test: Western-blot assay of substrate protein degradation in hPBMCs, GSPT1; type: cell-based; conditions: 24 hours of compound treatment, compounds tested at 50 nM and 500 nM (concentration of the table not stated)
T4 construct: endogenous in cells; host or cells: hPBMCs (Milecell Biotechnologies)
T4 sequence (P15170 whole entry): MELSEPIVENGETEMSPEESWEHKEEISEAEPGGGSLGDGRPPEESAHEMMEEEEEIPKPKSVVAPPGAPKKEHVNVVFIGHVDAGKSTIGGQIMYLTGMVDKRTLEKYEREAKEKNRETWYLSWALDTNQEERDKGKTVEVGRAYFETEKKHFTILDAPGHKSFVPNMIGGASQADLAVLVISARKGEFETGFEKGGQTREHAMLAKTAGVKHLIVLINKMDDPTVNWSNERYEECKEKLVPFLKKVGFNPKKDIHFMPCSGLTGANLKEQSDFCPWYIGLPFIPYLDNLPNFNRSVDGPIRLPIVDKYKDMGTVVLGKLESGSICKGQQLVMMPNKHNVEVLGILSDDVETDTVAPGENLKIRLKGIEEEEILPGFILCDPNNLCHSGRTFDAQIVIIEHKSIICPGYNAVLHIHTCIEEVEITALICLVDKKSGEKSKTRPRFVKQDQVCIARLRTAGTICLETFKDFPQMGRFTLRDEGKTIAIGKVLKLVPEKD
T4 sequence (Q96SW2 whole entry): as the sequence (Q96SW2 whole entry) above
T4 sequence (Q16531 whole entry partner): as the sequence (Q16531 whole entry partner) above

CAL-62 = test: Tumor cell proliferation inhibition (CellTiter-Meiluncell Luminescent Cell Viability Assay), CAL-62; conditions: Homo sapiens, CAL-62, 96 h, read-out: inhibitory activity (IC50, nM) against tumor cells proliferation, CAL-62
CK1α = molecular target: T5, CK1α (Homo sapiens, UniProt P48729+Q96SW2); test: Western-blot assay of substrate protein degradation in hPBMCs, CK1α; type: cell-based; conditions: 24 hours of compound treatment, compounds tested at 50 nM and 500 nM (concentration of the table not stated)
T5 construct: endogenous in cells; host or cells: hPBMCs (Milecell Biotechnologies)
T5 sequence (P48729 whole entry): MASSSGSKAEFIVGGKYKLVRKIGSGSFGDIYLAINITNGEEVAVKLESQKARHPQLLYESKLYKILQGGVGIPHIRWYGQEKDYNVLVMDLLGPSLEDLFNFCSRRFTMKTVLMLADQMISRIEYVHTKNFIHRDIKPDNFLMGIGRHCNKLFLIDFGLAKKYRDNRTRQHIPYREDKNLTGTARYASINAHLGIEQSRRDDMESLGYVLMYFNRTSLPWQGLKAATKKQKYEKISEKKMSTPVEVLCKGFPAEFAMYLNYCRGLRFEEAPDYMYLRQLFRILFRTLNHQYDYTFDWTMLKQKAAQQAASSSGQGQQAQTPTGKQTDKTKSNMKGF
T5 sequence (Q96SW2 whole entry): as the sequence (Q96SW2 whole entry) above
T5 sequence (Q16531 whole entry partner): as the sequence (Q16531 whole entry partner) above

WEE1 = molecular target: T6, WEE1 (Homo sapiens, UniProt P30291+Q96SW2); test: Western-blot assay of substrate protein degradation in hPBMCs, WEE1; type: cell-based; conditions: 24 hours of compound treatment, compounds tested at 50 nM and 500 nM (concentration of the table not stated)
T6 construct: endogenous in cells; host or cells: hPBMCs (Milecell Biotechnologies)

Jurkat = test: Tumor cell proliferation inhibition (CellTiter-Meiluncell Luminescent Cell Viability Assay), Jurkat; conditions: Homo sapiens, 96 h, read-out: inhibitory activity (IC50, nM) against tumor cells proliferation, Jurkat
IKZF3 = molecular target: T7, IKZF3 (Homo sapiens, UniProt Q96SW2+Q9UKT9); test: Western-blot assay of substrate protein degradation in hPBMCs, IKZF3; type: cell-based; conditions: 24 hours of compound treatment, compounds tested at 50 nM and 500 nM (concentration of the table not stated)
T7 construct: endogenous in cells; host or cells: hPBMCs (Milecell Biotechnologies)
T7 sequence (Q9UKT9 whole entry): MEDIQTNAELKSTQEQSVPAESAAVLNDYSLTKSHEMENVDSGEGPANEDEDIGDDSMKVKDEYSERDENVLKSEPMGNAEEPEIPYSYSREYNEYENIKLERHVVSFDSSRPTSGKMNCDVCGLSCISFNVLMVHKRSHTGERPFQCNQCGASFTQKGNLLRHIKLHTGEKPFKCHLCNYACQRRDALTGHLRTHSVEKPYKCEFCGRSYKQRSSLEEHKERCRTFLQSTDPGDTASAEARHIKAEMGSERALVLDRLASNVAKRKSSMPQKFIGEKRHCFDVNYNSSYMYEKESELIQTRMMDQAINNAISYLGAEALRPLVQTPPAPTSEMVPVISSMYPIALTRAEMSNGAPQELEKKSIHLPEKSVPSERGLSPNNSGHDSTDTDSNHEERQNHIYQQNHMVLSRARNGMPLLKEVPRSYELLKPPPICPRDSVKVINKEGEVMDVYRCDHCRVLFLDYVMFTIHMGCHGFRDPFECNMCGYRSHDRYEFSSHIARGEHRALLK
T7 sequence (Q96SW2 whole entry): as the sequence (Q96SW2 whole entry) above
T7 sequence (Q16531 whole entry partner): as the sequence (Q16531 whole entry partner) above

[3] = test system: Human breast cancer cells (MDA-MB-231); test: Tumor cell proliferation inhibition (CellTiter-Meiluncell Luminescent Cell Viability Assay), MDA-MB-231; conditions: MDA-MB-231, 96 h, read-out: inhibitory activity (IC50, nM) against tumor cells proliferation, MDA-MB-231

T1 sequence (Q13422 whole entry): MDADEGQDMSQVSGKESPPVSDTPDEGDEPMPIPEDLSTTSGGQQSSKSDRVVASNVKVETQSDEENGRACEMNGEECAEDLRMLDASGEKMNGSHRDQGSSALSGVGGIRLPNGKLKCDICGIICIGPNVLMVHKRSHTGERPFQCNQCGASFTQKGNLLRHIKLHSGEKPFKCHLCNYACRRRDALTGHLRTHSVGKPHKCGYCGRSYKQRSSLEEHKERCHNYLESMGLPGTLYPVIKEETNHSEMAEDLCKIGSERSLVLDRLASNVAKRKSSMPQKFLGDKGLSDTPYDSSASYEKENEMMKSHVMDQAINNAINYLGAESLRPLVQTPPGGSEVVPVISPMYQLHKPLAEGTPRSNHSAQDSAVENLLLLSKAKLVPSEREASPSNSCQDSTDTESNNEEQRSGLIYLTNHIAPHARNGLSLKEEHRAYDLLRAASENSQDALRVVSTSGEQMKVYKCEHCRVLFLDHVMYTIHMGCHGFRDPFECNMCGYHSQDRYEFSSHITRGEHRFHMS
T1 sequence (Q96SW2 whole entry): as the sequence (Q96SW2 whole entry) above
T1 sequence (Q16531 whole entry partner): as the sequence (Q16531 whole entry partner) above

IC50 (NCI-H1975) | IC50 [1] | IC50 (MM.1R) | IC50 [2] | IC50 (CAL-62) | IC50 (Jurkat) | IC50 [3] | Compound | IKZF 1 substrate protein remaining % (IKZF1) | IKZF2 substrate protein remaining % (IKZF2) | GSPT1 substrate protein remaining % (GSPT1) | CK1a substrate protein remaining % (CK1α) | Weel substrate protein remaining % (WEE1) | IKZF3 substrate protein remaining % (IKZF3)
50 to 100 nM | 500 to 1000 nM | 5 to 10 nM | 5 to 10 nM | 10 to 50 nM | 50 to 100 nM | 50 to 100 nM | O=C1CCC(N2Cc3cc(CN4CCN(c5cccc(F)c5F)CC4)ccc3C2=O)C(=O)N1 (stereo not shown) [GT-04515, 3-(5-((4-(2,3-difluorophenyl)piperazin-1-yl)methyl)-1-oxoisoindolin-2-yl)piperidine-2,6-dione] | A (0% ≤ substrate protein remaining % ≤ 80%) | A (0% ≤ substrate protein remaining % ≤ 80%) | A (0% ≤ substrate protein remaining % ≤ 80%) | A (0% ≤ substrate protein remaining % ≤ 80%) | A (0% ≤ substrate protein remaining % ≤ 80%) | A (0% ≤ substrate protein remaining % ≤ 80%)
10 to 50 nM |  | 5 to 10 nM | 1 to 5 nM | 1 to 5 nM | 500 to 1000 nM | 10 to 50 nM | O=C1CCC(N2Cc3cc(CN4CCN(c5cccc(Cl)c5Cl)CC4)c(F)cc3C2=O)C(=O)N1 (stereo not shown) [GT-04527, 3-(5-((4-(2,3-dichlorophenyl)piperazin-1-yl)methyl)-6-fluoro-1-oxoisoindolin-2-yl)piperidine-2,6-dione] | B (80%< substrate protein remaining %≤ 100%) | A (0% ≤ substrate protein remaining % ≤ 80%) | A (0% ≤ substrate protein remaining % ≤ 80%) | A (0% ≤ substrate protein remaining % ≤ 80%) | A (0% ≤ substrate protein remaining % ≤ 80%) | A (0% ≤ substrate protein remaining % ≤ 80%)
100 to 500 nM | 500 to 1000 nM | 10 to 50 nM | 10 to 50 nM | 10 to 50 nM | 5 to 10 nM | 50 to 100 nM | Cc1cccc(N2CCN(Cc3ccc4c(c3)CN(C3CCC(=O)NC3=O)C4=O)CC2)n1 (stereo not shown) [GT-04530, 3-(5-((4-(6-methylpyridin-2-yl)piperazin-1-yl)methyl)-1-oxoisoindolin-2-yl)piperidine-2,6-dione] | A (0% ≤ substrate protein remaining % ≤ 80%) | A (0% ≤ substrate protein remaining % ≤ 80%) | A (0% ≤ substrate protein remaining % ≤ 80%) | A (0% ≤ substrate protein remaining % ≤ 80%) | A (0% ≤ substrate protein remaining % ≤ 80%) | A (0% ≤ substrate protein remaining % ≤ 80%)
100 to 500 nM | 500 to 1000 nM | 10 to 50 nM | 10 to 50 nM | 10 to 50 nM | 5 to 10 nM | 100 to 500 nM | O=C1CCC(N2Cc3cc(CN4CCN(c5ccc(F)cn5)CC4)ccc3C2=O)C(=O)N1 (stereo not shown) [GT-04531, 3-(5-((4-(5-fluoropyridin-2-yl)piperazin-1-yl)methyl)-1-oxoisoindolin-2-yl)piperidine-2,6-dione] | A (0% ≤ substrate protein remaining % ≤ 80%) | A (0% ≤ substrate protein remaining % ≤ 80%) | A (0% ≤ substrate protein remaining % ≤ 80%) | A (0% ≤ substrate protein remaining % ≤ 80%) | A (0% ≤ substrate protein remaining % ≤ 80%) | A (0% ≤ substrate protein remaining % ≤ 80%)
50 to 100 nM | 500 to 1000 nM | 1 to 5 nM | 1 to 5 nM | 5 to 10 nM | 1 to 5 nM | 50 to 100 nM | O=C1CCC(N2Cc3cc(CN4CCN(c5cc(Cl)c(Cl)cn5)CC4)ccc3C2=O)C(=O)N1 (stereo not shown) [GT-04533, 3-(5-((4-(4,5-dichloropyridin-2-yl)piperazin-1-yl)methyl)-1-oxoisoindolin-2-yl)piperidine-2,6-dione] | A (0% ≤ substrate protein remaining % ≤ 80%) | A (0% ≤ substrate protein remaining % ≤ 80%) | A (0% ≤ substrate protein remaining % ≤ 80%) | A (0% ≤ substrate protein remaining % ≤ 80%) | A (0% ≤ substrate protein remaining % ≤ 80%) | A (0% ≤ substrate protein remaining % ≤ 80%)
 | 500 to 1000 nM | 100 to 500 nM | 50 to 100 nM | 100 to 500 nM | 50 to 100 nM |  | O=C1CCC(N2Cc3cc(CN4CCN(c5c(F)cccc5F)CC4)ccc3C2=O)C(=O)N1 (stereo not shown) [GT-04540, 3-(5-((4-(2,6-difluorophenyl)piperazin-1-yl)methyl)-1-oxoisoindolin-2-yl)piperidine-2,6-dione] | A (0% ≤ substrate protein remaining % ≤ 80%) | A (0% ≤ substrate protein remaining % ≤ 80%) | A (0% ≤ substrate protein remaining % ≤ 80%) | B (80%< substrate protein remaining %≤ 100%) | A (0% ≤ substrate protein remaining % ≤ 80%) | A (0% ≤ substrate protein remaining % ≤ 80%)
 | 500 to 1000 nM | 100 to 500 nM | 100 to 500 nM | 10 to 50 nM | 50 to 100 nM |  | Cc1ccc(N2CCN(Cc3ccc4c(c3)CN(C3CCC(=O)NC3=O)C4=O)CC2)s1 (stereo not shown) [GT-04546, 3-(5-((4-(5-methylthiophen-2-yl)piperazin-1-yl)methyl)-1-oxoisoindolin-2-yl)piperidine-2,6-dione] | A (0% ≤ substrate protein remaining % ≤ 80%) | A (0% ≤ substrate protein remaining % ≤ 80%) | A (0% ≤ substrate protein remaining % ≤ 80%) | A (0% ≤ substrate protein remaining % ≤ 80%) | A (0% ≤ substrate protein remaining % ≤ 80%) | A (0% ≤ substrate protein remaining % ≤ 80%)
 | 500 to 1000 nM | 10 to 50 nM | 10 to 50 nM | 10 to 50 nM | 10 to 50 nM |  | O=C1CCC(N2Cc3cc(CN4CCC(c5ccnc(Cl)c5Cl)CC4)ccc3C2=O)C(=O)N1 (stereo not shown) [GT-04560, 3-(5-((4-(2,3-dichloropyridin-4-yl)piperidin-1-yl)methyl)-1-oxoisoindolin-2-yl)piperidine-2,6-dione] | A (0% ≤ substrate protein remaining % ≤ 80%) | A (0% ≤ substrate protein remaining % ≤ 80%) | A (0% ≤ substrate protein remaining % ≤ 80%) | A (0% ≤ substrate protein remaining % ≤ 80%) | A (0% ≤ substrate protein remaining % ≤ 80%) | A (0% ≤ substrate protein remaining % ≤ 80%)

From patent EP4745137A1 (Gluetacs Therapeutics (Shanghai) Co., Ltd., priority 2023, dated 2025)
